Reference: ChEMBL document CHEMBL1201862, “PubChem BioAssay data set” (2004)
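Exposure lasted 48 hours, with cells grown in 96-well plates and compounds tested at five concentrations. Abbreviation: GI50, concentration required for 50% inhibition of growth.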 Active and inactive are the calls of the source. No stated cut-off is given here; in the data, active = GI50 up to about 1.1 µM and inactive = higher.

How the values were obtained:
Experiment in all cases: NCI anticancer screen, dose series, 48 h
[1] = system: LOX IMVI
[2] = system: KM12
[3] = system: DU-145
[4] = system: MDA-MB-435
[5] = system: PC-3
[6] = system: OVCAR-3
[7] = system: OVCAR-4
[8] = system: SW-620
[9] = system: COLO 205
[10] = system: NCI/ADR-RES
[11] = system: SNB-75
[12] = system: MDA-MB-231
[13] = system: OVCAR-8
[14] = system: HCT-116
[15] = system: IGROV-1
[16] = system: MDA-N
[17] = system: TK-10
[18] = system: EKVX
[19] = system: U-251
[20] = system: T47D

Measured: GI50

Cc1cccc2c(=O)c3c(O)cc4c(c3n(C)c12)C=CC(C)(C)O4
inactive: [1] 40.3 µM | [2] 29 µM | [3] > 100 µM | [4] 70.5 µM | [5] 91.8 µM | [6] > 100 µM | [7] 43.9 µM | [8] > 100 µM | [9] 29 µM | [10] 31.8 µM | [11] 97.5 µM | [12] > 100 µM | [13] > 100 µM | [14] 58.9 µM | [15] > 100 µM | [16] 35.6 µM | [17] > 100 µM | [18] 25.6 µM | [19] > 100 µM

O=[N+]([O-])c1ccc2nc(=S)[nH]n2c1
inactive: [1] > 100 µM | [2] > 100 µM | [3] > 100 µM | [4] > 100 µM | [7] > 100 µM | [8] > 100 µM | [9] > 100 µM | [10] > 100 µM | [20] > 100 µM | [11] > 100 µM | [12] > 100 µM | [13] > 100 µM | [14] > 100 µM | [15] > 100 µM | [17] > 100 µM | [18] > 100 µM | [19] > 100 µM

COC(=O)c1cc(-c2ccc(OC)c(OC)c2)oc1-c1ccc(OC)c(OC)c1
inactive: [1] 28.1 µM | [2] 41.6 µM | [6] 42.5 µM | [7] 62.5 µM | [8] 45.3 µM | [9] 19.5 µM | [11] 33.5 µM | [13] 44.6 µM | [14] 32.4 µM | [15] 45.5 µM | [17] 53.8 µM | [18] 52.4 µM | [19] 30.6 µM

CCOC(=O)/C(=C\NC[C@@H](C)O)c1nc2ccccc2[nH]1
inactive: [1] 96.8 µM | [2] 57.4 µM | [3] > 100 µM | [4] > 100 µM | [6] 98.4 µM | [7] 83.8 µM | [8] > 100 µM | [9] 69.5 µM | [10] 44.3 µM | [11] > 100 µM | [13] 64 µM | [14] > 100 µM | [15] 37.8 µM | [16] > 100 µM | [17] 54.2 µM | [18] > 100 µM

O=C1c2ccccc2C2CCC1c1ccccc12 (stereo not drawn)
inactive: [1] 36.3 µM | [2] 31.6 µM | [6] 30.5 µM | [7] 30.1 µM | [8] 39.2 µM | [9] 19.2 µM | [11] 24.5 µM | [13] 43.2 µM | [14] 19.6 µM | [15] 62.2 µM | [17] 34.9 µM | [18] 43.4 µM | [19] 39.5 µM

CCOC(=O)CSC1NC(C(=O)OC)CC1OC (stereo not drawn)
inactive: [2] > 100 µM | [3] > 100 µM | [4] > 100 µM | [5] > 100 µM | [6] > 100 µM | [7] > 100 µM | [8] > 100 µM | [9] > 100 µM | [10] > 100 µM | [11] > 100 µM | [12] > 100 µM | [13] > 100 µM | [14] > 100 µM | [15] > 100 µM | [16] > 100 µM | [17] > 100 µM | [18] > 100 µM | [19] > 100 µM

CNc1ncc(-c2nnnn2-c2ccccc2)c(CN(C)C)n1
inactive: [1] > 100 µM | [2] > 100 µM | [3] > 100 µM | [4] > 100 µM | [5] > 100 µM | [6] > 100 µM | [8] > 100 µM | [9] > 100 µM | [10] > 100 µM | [20] > 100 µM | [11] > 100 µM | [12] > 100 µM | [13] > 100 µM | [14] > 100 µM | [15] > 100 µM | [17] > 100 µM | [18] > 100 µM | [19] > 100 µM

C[C@@H]1[C@H](O)CC2=C(CC[C@@H](O)C2(C)C)[C@@]1(CO)CCc1ccoc1
inactive: [1] > 50 µM | [2] > 50 µM | [5] 46.3 µM | [6] > 50 µM | [7] > 50 µM | [8] > 50 µM | [9] > 50 µM | [10] > 50 µM | [11] 31.8 µM | [12] > 50 µM | [13] > 50 µM | [14] > 50 µM | [15] > 50 µM | [16] > 50 µM | [17] > 50 µM | [18] > 50 µM | [19] > 50 µM

Cc1cc(NS(=O)(=O)c2ccc(NC(=O)c3cccc4c(Nc5ccc(S(=O)(=O)Nc6cc(C)on6)cc5)c5ccc(Cl)cc5nc34)cc2)no1
inactive: [1] 53.7 µM | [2] 69.2 µM | [6] 68.5 µM | [7] 49.5 µM | [8] 76.7 µM | [9] 56.1 µM | [11] 19.7 µM | [13] > 100 µM | [14] 23.2 µM | [15] 59.4 µM | [17] > 100 µM | [18] > 100 µM | [19] 35.5 µM

CCCCCCCCCCCCCC/C(C(=O)OC)=C(/O)C(=O)OCC
inactive: [1] 17.8 µM | [2] 19.9 µM | [6] > 100 µM | [7] 58.9 µM | [8] > 100 µM | [9] 90.8 µM | [11] 33 µM | [13] 44.8 µM | [14] 47.6 µM | [15] 30 µM | [17] 47.3 µM | [18] 37.2 µM | [19] 26.3 µM

O=C(NCCCCNCCCNC(=O)c1ccccc1)c1ccccc1
inactive: [2] > 100 µM | [3] > 100 µM | [4] > 100 µM | [5] > 100 µM | [6] > 100 µM | [7] > 100 µM | [8] > 100 µM | [9] > 100 µM | [10] > 100 µM | [20] > 100 µM | [11] > 100 µM | [12] > 100 µM | [13] > 100 µM | [14] > 100 µM | [15] > 100 µM | [17] > 100 µM | [18] > 100 µM | [19] > 100 µM

CC(C)c1cccc(=O)c(O)c1 [HINOKITIOL]
inactive: [1] 5.06 µM | [2] 12.4 µM | [6] 4.05 µM | [7] 7.23 µM | [8] 5.9 µM | [9] 4.24 µM | [11] 24.4 µM | [13] 4.45 µM | [14] 3.91 µM | [15] 13.5 µM | [17] 58.1 µM | [18] 17.3 µM | [19] 9.12 µM
